Source: publication PMC11031590, “Narazaciclib, a novel multi-kinase inhibitor with potent activity against CSF1R, FLT3 and CDK6, shows strong anti-AML activity in defined preclinical models” (Scientific Reports, 2024)
pIC50: −log10 of the molar value.

Experiments:
CDK6-CyclinD1 = CDK6-CyclinD1 (Homo sapiens, UniProt Q00534); test: CDK6 TR-FRET kinase assay; type: biochemical; settings: ATP 250 µM; read-out: IC50 CDK6 enzymatic activity
Protocol: For CDK6 inhibition, a Time-resolved fluorescence energy transfer (TR-FRET) kinase assay was performed according to the manufacturer’s instructions. Briefly, narazaciclib at various concentrations was pre-incubated with CDK6-CyclinD1 in kinase buffer at 25 °C for 1 h and then incubated with 12.5 nM Ulight-4E-BP1 peptide and 250 µM ATP at 25 °C for 2 h. The reaction was stopped by incubating with EDTA-containing stop buffer at 25 °C for 5 min. Subsequently, the mixture was incubated with detection buffer at 25 °C for 1 h. Finally, the signal was read on a Nivo Reader in TR-FRET mode (excitation at 320 nm and emission at 665 nm and 615 nm). The signal of the blank control was subtracted from the maximum signal (DMSO without compound) as well as from the value of narazaciclib at each concentration. This corrected emission ratio (ER) was used to calculate the percentage of enzyme activity recovery: enzyme activity recovery (%) = [(narazaciclib ER – blank control ER)[…]] × 100. The results were fitted to a dose–response curve by a 4-parameter log-logistic model: Inhibition%=Bottom+Top-Bottom/1+10^logEC50-x∗HillSlope

CDK9 = CDK9 (Homo sapiens, UniProt P50750); test: Additional kinase inhibition panel; type: biochemical
Sequence of CDK9 (P50750 whole entry): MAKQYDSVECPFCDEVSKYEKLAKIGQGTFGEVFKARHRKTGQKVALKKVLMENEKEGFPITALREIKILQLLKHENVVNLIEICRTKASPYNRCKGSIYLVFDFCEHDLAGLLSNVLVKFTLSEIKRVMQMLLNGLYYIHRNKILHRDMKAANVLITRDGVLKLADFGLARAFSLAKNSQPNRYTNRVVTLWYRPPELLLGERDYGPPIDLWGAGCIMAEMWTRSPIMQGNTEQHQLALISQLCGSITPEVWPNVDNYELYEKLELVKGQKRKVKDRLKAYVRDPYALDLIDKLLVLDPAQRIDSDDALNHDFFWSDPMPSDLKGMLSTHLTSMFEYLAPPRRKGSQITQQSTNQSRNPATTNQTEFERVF
Sequence of CDK9 (O60563 whole entry partner): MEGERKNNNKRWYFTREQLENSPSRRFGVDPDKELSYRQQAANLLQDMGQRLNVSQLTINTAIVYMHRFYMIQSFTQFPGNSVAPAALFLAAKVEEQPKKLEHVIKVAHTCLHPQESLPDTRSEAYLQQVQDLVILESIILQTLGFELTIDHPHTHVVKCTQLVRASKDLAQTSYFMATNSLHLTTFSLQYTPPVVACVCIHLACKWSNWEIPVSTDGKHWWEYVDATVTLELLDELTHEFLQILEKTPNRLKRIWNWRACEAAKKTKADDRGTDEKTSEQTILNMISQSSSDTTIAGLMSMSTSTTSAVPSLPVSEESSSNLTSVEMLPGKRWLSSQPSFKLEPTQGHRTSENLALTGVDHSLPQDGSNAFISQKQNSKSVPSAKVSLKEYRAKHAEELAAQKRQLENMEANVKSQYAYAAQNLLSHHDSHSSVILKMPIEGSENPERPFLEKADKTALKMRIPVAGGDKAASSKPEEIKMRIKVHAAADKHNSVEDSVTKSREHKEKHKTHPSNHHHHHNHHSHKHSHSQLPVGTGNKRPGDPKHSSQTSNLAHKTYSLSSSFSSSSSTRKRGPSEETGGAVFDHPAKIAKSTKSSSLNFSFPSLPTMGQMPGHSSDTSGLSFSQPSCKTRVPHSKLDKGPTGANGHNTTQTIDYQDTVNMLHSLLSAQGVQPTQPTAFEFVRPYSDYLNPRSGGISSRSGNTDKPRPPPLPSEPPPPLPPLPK
Source text: (§1) Supplement 41598_2024_59650_MOESM2_ESM.docx, table 4: Supplemental Table S4. IC50 of Narazaciclib against additional kinases | column: Narazaciclib (µM); Narazaciclib metabolite (µM)

SIK3 = SIK3 (Homo sapiens, UniProt Q9Y2K2); test: Additional kinase inhibition panel; type: biochemical
Source text: as §1

FGFR3 = FGFR3 (Homo sapiens, UniProt P22607); test: Additional kinase inhibition panel; type: biochemical
Source text: as §1

ABL-1 = ABL-1 (Homo sapiens, UniProt P00519); test: Additional kinase inhibition panel; type: biochemical
Source text: as §1

SIK1 = SIK1 (Homo sapiens, UniProt P57059); test: Additional kinase inhibition panel; type: biochemical
Source text: as §1

PDGFRβ = PDGFRβ (Homo sapiens, UniProt P09619); test: Additional kinase inhibition panel; type: biochemical
Sequence of PDGFRβ (P09619 33-1106): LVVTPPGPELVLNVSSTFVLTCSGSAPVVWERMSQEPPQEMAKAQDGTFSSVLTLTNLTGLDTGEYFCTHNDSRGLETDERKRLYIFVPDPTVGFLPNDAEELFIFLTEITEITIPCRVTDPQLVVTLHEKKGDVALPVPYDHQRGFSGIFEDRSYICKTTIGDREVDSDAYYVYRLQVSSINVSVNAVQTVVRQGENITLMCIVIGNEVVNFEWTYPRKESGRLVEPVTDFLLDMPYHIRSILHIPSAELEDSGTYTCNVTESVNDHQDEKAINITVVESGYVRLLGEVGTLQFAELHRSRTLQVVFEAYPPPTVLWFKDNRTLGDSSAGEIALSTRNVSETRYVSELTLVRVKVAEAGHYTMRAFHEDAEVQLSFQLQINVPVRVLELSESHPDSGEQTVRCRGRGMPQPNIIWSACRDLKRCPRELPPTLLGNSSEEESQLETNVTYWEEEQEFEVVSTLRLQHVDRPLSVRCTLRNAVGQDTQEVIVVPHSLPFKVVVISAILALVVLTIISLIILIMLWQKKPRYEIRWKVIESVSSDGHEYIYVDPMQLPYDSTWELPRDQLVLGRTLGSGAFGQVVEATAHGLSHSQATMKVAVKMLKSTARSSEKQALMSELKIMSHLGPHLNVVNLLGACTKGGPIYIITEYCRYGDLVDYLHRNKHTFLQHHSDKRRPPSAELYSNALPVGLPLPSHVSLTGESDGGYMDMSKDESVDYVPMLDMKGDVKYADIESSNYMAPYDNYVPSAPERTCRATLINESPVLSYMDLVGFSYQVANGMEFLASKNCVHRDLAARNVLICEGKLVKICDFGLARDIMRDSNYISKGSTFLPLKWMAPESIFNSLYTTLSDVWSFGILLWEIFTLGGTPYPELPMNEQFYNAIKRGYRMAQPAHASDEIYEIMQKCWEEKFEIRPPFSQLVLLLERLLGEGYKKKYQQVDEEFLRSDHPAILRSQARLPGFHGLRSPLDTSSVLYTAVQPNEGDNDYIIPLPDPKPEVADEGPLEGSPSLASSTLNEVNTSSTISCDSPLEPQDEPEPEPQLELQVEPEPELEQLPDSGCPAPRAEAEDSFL
Source text: as §1

FGFR2 = FGFR2 (Homo sapiens, UniProt P21802); test: Additional kinase inhibition panel; type: biochemical
Source text: as §1

FGFR1 = FGFR1 (Homo sapiens, UniProt P11362); test: Additional kinase inhibition panel; type: biochemical
Source text: as §1

PDGFRα = PDGFRα (Homo sapiens, UniProt P16234); test: Additional kinase inhibition panel; type: biochemical
Sequence of PDGFRα (P16234 24-1089): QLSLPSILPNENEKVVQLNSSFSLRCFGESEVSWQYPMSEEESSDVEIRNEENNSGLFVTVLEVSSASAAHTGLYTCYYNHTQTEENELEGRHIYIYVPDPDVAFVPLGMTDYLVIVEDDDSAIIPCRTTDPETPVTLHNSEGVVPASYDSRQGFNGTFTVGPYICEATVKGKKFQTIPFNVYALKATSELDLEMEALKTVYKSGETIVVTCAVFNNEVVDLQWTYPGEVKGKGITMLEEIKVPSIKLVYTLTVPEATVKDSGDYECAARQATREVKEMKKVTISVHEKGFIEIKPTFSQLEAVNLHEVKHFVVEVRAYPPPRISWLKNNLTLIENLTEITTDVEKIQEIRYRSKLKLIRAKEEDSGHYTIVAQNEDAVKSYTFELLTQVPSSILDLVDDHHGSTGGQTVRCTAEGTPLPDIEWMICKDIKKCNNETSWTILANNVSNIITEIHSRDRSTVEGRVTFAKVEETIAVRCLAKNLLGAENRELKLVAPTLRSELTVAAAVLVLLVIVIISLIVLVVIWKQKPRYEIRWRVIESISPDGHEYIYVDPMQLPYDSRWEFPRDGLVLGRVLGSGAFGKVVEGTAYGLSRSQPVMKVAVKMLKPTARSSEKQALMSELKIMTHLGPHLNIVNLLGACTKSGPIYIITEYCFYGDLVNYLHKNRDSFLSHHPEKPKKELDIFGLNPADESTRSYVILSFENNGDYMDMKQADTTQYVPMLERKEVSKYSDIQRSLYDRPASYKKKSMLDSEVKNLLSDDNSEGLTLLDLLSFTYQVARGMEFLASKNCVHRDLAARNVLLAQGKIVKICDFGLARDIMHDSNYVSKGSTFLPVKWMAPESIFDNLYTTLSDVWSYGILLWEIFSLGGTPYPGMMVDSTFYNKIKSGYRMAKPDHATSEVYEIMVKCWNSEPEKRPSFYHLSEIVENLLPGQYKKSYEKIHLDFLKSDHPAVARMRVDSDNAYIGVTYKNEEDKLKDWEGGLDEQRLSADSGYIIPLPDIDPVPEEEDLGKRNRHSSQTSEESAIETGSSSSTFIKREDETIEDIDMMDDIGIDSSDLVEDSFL
Source text: as §1

RET = RET (Homo sapiens, UniProt P07949); test: Additional kinase inhibition panel; type: biochemical
Sequence of RET (P07949 29-1114): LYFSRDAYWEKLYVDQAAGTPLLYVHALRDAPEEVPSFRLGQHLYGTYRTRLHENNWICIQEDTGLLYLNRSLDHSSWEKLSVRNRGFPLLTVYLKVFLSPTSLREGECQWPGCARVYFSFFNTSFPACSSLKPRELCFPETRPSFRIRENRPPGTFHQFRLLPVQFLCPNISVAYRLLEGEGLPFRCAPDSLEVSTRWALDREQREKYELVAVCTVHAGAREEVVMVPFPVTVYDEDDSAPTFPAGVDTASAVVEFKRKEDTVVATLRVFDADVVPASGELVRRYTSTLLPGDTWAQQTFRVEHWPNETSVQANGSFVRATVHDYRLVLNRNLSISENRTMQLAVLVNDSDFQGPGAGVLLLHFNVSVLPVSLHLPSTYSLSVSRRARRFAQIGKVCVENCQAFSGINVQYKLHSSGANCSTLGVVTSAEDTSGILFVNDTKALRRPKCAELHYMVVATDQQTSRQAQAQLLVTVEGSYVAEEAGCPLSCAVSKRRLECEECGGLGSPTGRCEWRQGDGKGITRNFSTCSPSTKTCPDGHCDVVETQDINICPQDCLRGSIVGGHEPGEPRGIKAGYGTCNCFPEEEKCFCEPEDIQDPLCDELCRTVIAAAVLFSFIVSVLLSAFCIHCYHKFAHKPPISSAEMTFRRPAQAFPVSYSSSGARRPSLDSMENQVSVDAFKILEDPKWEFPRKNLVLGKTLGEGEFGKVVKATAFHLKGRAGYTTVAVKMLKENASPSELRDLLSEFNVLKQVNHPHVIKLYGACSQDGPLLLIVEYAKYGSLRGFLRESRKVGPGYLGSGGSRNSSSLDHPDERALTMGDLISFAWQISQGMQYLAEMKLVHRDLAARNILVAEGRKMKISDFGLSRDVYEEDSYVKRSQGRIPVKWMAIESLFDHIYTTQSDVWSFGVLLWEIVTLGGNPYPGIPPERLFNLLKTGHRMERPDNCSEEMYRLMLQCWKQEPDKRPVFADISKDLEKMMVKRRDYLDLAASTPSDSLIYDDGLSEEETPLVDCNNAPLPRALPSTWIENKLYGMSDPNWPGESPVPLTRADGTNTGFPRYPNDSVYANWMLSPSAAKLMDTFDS
Source text: as §1

C-Kit = C-Kit (Homo sapiens, UniProt P10721); test: Additional kinase inhibition panel; type: biochemical
Source text: as §1

FGFR4 = FGFR4 (Homo sapiens, UniProt P22455); test: Additional kinase inhibition panel; type: biochemical
Sequence of FGFR4 (P22455 22-802): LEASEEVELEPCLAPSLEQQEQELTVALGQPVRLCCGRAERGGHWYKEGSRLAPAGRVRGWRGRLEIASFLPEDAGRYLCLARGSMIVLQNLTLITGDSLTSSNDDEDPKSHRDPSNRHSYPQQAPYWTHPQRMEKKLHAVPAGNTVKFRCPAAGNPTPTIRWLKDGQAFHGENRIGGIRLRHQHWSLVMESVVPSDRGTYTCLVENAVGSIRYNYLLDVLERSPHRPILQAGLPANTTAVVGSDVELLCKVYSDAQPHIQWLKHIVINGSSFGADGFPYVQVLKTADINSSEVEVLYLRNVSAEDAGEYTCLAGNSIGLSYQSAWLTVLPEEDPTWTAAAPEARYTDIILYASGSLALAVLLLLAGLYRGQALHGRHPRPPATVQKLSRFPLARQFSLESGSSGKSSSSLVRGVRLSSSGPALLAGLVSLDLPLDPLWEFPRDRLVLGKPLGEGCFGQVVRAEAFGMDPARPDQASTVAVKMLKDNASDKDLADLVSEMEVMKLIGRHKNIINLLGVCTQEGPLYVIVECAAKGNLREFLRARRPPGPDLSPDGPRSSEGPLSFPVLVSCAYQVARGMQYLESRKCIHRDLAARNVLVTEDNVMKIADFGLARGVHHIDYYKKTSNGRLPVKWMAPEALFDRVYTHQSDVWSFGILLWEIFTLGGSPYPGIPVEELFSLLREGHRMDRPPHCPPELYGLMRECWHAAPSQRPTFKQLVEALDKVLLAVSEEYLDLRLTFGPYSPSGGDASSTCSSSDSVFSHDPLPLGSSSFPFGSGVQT
Source text: as §1

Ba/F3-FLT3-ITD (F691L) = Ba/F3-FLT3-ITD (F691L) proliferation assay; type: cell-based, mouse
Protocol: (§2) The recombinant Ba/F3 cell lines overexpressing human CSF1R, or human RBM6-CSF1R, or human ETV6-CSF1R were generated using a retrovirus vector (Kyinno Co., Ltd. Beijing). The recombinant Ba/F3 lines overexpressing human Kras G12C orEGFR-L718Q mutants, and different mutant variants of FLT3 were also similarly created as well. A standard proliferation assay via CTG readout was performed according to the vendor’s instructions (KYinno Biotechnology Co., Ltd. Beijing).

Ba/F3-FLT3-F691L = Ba/F3-FLT3-F691L proliferation assay; type: cell-based, mouse
Protocol: as §2

Ba/F3-FLT3-ITD = Ba/F3-FLT3-ITD proliferation assay; type: cell-based, mouse
Protocol: as §2

Ba/F3-KRAS-G12C = Ba/F3-KRAS-G12C proliferation assay (CTG); type: cell-based; settings: Mus musculus
Protocol: as §2

Ba/F3-FLT3-ITD (D835F) = Ba/F3-FLT3-ITD (D835F) proliferation assay; type: cell-based, mouse
Protocol: as §2

Ba/F3-FLT3 = Ba/F3-FLT3 proliferation assay; type: cell-based, mouse
Protocol: as §2

AM7577 AML-PDX = test: AM7577 systemic AML-PDX model; type: in vivo, NOD/scid mice
Protocol: For systemic AML-PDX models, the model establishment and narazaciclib pharmacology experiment were performed essentially as described previously. Briefly, 2 × 10^6 AM7407 cells, or 2 × 10^6 AM7577 cells, or 2 × 10^6 AM5512 cells, or 1.65 × 10^6 AM8096 cells were inoculated intravenously into 4- to 5-week-old female NOD/scid mice for AML development. Engraftment was confirmed by the presence of circulating human CD45+ cells (anti-human CD45 antibody, Cat. 304038, Biolegend) in peripheral blood. Mice with successful engraftment of AML-PDX were randomized into different treatment groups (N = 6) and received their designated treatments. Narazaciclib was administrated orally or intraperitoneally at 10 mg/kg, or 30 mg/kg, or 100 mg/kg every day throughout the study, while Cytarabine was administrated intraperitoneally at 3 mg/kg every day. Following the initiation of designated treatments, leukemic burden was monitored by flow cytometry with anti-human CD45 antibody on the peripheral blood every week as well as on the peripheral blood, bone marrow cells and splenocytes of mice at sacrifice. Mice were sacrifice once the followings are observed: body weight loss over 20%, reduced motility and activity, labored breathing, ruffled coat, hunched back and severe dehydration.

Ba/F3-FLT3-ITD (Y842H) = Ba/F3-FLT3-ITD (Y842H) proliferation assay; type: cell-based, mouse
Protocol: as §2

Ba/F3-FLT3-ITD (D835V) = Ba/F3-FLT3-ITD (D835V) proliferation assay; type: cell-based, mouse
Protocol: as §2

Ba/F3-FLT3-ITD (D835Y) = Ba/F3-FLT3-ITD (D835Y) proliferation assay; type: cell-based, mouse
Protocol: as §2

pIC50 (CDK6-CyclinD1): 9.28 | pIC50 (CDK9): 7.55 | pIC50 (SIK3): 7.62 | pIC50 (FGFR3): 6.73 | pIC50 (ABL-1): 7.42 | pIC50 (SIK1): 7.47 | pIC50 (PDGFRβ): 8.00 | pIC50 (FGFR2): 7.70 | pIC50 (FGFR1): 7.42 | pIC50 (PDGFRα): 6.98 | pIC50 (RET): 7.80 | pIC50 (C-Kit): 8.05 | pIC50 (FGFR4): 5.56 | % of Ba/F3-FLT3 (IC50) (Ba/F3-FLT3-ITD (F691L)): 53.85% | pIC50 (Ba/F3-FLT3-ITD (F691L); Mus musculus): 6.79 | % of Ba/F3-FLT3 (IC50) (Ba/F3-FLT3-F691L): 44.19% | pIC50 (Ba/F3-FLT3-F691L; Mus musculus): 6.88 | % of Ba/F3-FLT3 (IC50) (Ba/F3-FLT3-ITD): 31.66% | pIC50 (Ba/F3-FLT3-ITD; Mus musculus): 7.02 | pIC50 (Ba/F3-KRAS-G12C): 6.31 | % of Ba/F3-FLT3 (IC50) (Ba/F3-FLT3-ITD (D835F)): 23.10% | pIC50 (Ba/F3-FLT3-ITD (D835F); Mus musculus): 7.16 | % of Ba/F3-FLT3 (IC50) (Ba/F3-FLT3; Ba/F3-FLT3): 100.00% | pIC50 (Ba/F3-FLT3; Mus musculus, Ba/F3-FLT3 (wild type)): 6.52 | % of Ba/F3-FLT3 (IC50) (Ba/F3-FLT3-ITD (Y842H)): 11.20% | pIC50 (Ba/F3-FLT3-ITD (Y842H); Mus musculus): 7.47 | % of Ba/F3-FLT3 (IC50) (Ba/F3-FLT3-ITD (D835V)): 9.84% | pIC50 (Ba/F3-FLT3-ITD (D835V); Mus musculus): 7.53 | % of Ba/F3-FLT3 (IC50) (Ba/F3-FLT3-ITD (D835Y)): 20.19% | pIC50 (Ba/F3-FLT3-ITD (D835Y); Mus musculus): 7.22
Structure (SMILES): CN1CCN(c2ccc(Nc3ncc4cc(C#N)c(=O)n(C5CCCC5)c4n3)cc2)CC1 [Narazaciclib, narazaciclib]
leukemic load in peripheral blood (AM7577 AML-PDX; 100 mg/kg orally every day): completely diminished the leukemic load in peripheral blood | leukemic load in peripheral blood, spleen and bone marrow (AM7577 AML-PDX; AM7577): reduce the leukemic load in peripheral blood and spleen, but also the leukemic load in bone marrow | leukemic burdens in spleen and bone marrow (AM7577 AML-PDX; AM7577, 100 mg/kg): significantly reduced the leukemic burdens in both spleen and bone marrow | leukemic burdens, dose dependence (AM7577 AML-PDX; AM7577, different dose levels): reduced the leukemic burdens in a dose-dependent manner
